Each molecule was assayed against DNA repair nuclease/redox regulator APEX1 (Homo sapiens, UniProt P27695) (assay: Inhibition of human APE1 after 25 mins by fluorescence assay).
DNA repair nuclease/redox regulator APEX1, sequence (P27695 whole entry): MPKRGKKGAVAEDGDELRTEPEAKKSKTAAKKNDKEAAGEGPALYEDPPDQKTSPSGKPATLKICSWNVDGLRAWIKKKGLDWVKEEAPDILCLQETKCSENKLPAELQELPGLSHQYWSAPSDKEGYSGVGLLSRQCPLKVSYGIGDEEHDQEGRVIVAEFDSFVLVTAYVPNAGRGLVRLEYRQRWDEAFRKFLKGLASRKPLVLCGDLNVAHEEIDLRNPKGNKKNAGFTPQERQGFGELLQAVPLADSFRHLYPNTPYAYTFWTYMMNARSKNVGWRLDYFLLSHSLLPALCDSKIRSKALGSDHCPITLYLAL

Row | Structure (SMILES) | IC50 [µM]
1 | Nc1c(S(=O)(=O)O)cc(Nc2ccc(Nc3nc(Cl)nc(Nc4ccc(S(=O)(=O)O)cc4)n3)c(S(=O)(=O)O)c2)c2c1C(=O)c1ccccc1C2=O | 0.25
2 | O=C(O)c1cc2cccc([N+](=O)[O-])c2[nH]1 | 3
3 | O=C(O)C1=CC(=C(c2ccc(O)c(C(=O)O)c2)c2ccc(O)c(C(=O)O)c2)C=CC1=O [AURINTRICARBOXYLIC ACID] | 10

From ChEMBL document CHEMBL3351390, “DNA repair and redox activities and inhibitors of apurinic/apyrimidinic endonuclease 1/redox effector factor 1 (APE1/Ref-1): a comparative analysis and their scope and limitations toward anticancer drug development” (J Med Chem, 2014)
